# Patent US20120214840A1, “INDOLIZINE INHIBITORS OF 5-LIPOXYGENASE” (PANMIRA PHARMACEUTICALS, LLC, priority 2009, published 2012)
# Tested on: LTB4 in human leukocytes
# Assay: Human Leukocyte LTB4 Inhibition Assay
# Assay type: cell-based
# Settings: Leukocyte, 0.5 h; human leukocytes stimulated with calcium ionophore, 30 minutes at 37° C., LTB4 by ELISA; read-out: LTB4 HLA IC50
# Protocol: A non-limiting example of a human leukocyte inhibition assay is as follows: Blood was drawn from consenting human volunteers into heparanized tubes and 3% dextran 0.9% saline ⅓ rd volume added. After sedimentation of red blood cells a hypotonic lysis of remaining red blood cells was performed and leukocytes sedimented at 1200 rpm. The pellet was resuspended at 1.25×10^5 cells/ml and aliquoted into wells containing 1 μL 100% DMSO (vehicle) or 2.5 μL drug in 100% DMSO. Samples were incubated for 5 minutes at 37° C. and 2 μL calcium ionophore […] (from a 50 mM DMSO stock diluted just prior to the assay in Hanks balanced salt solution (Invitrogen)) to 1.25 mM) was added, solutions mixed and incubated for 30 minutes at 37° C. Samples were centrifuged at 1,200 rpm (˜200×g) for 10 minutes at 4° C., plasma removed and a 1:4 dilution assayed for LTB4 concentration using ELISA (Assay Designs). Drug concentrations to achieve 50% inhibition (IC50's) of vehicle LTB4 were determined by nonlinear regression (Graphpad Prism) of % inhibition versus log drug concentration.
row,IC50 [nM],Structure (SMILES)
1,< 300,"CCC(O)(c1cn(Cc2ccc3c(-c4ccc(F)cc4)c(C(N)=O)cn3c2)nn1)C(F)(F)F (centres unmarked) [Compound 1-2, 1-(4-Fluoro-phenyl)-6-[4-(1-hydroxy-1-trifluoromethyl-propyl)-[1,2,3]triazol-1-ylmethyl]-indolizine-2-carboxylic acid amide]"
2,< 300,"C=C(C)c1c(C(=O)OCC)cn2cc(Cn3cc(C(O)(CC)C(F)(F)F)nn3)ccc12 (centres unmarked) [Compound 1-7, 6-[4-(1-Hydroxy-1-trifluoromethyl-propyl)-[1,2,3]triazol-1-ylmethyl]-1-isopropenyl-indolizine-2-carboxylic acid ethyl ester]"
3,< 300,"CCOC(=O)c1cn2cc(Cn3cc(C(O)(CC)C(F)(F)F)nn3)ccc2c1C(C)C (centres unmarked) [Compound 1-8, 6-[4-(1-Hydroxy-1-trifluoromethyl-propyl)-[1,2,3]triazol-1-ylmethyl]-1-isopropyl-indolizine-2-carboxylic acid ethyl ester]"
4,< 300,"CCC(O)(c1cn(Cc2ccc3c(-c4ccc(F)cc4)c(C(N)=O)nn3c2)nn1)C(F)(F)F (centres unmarked) [Compound 1-12, 3-(4-Fluoro-phenyl)-6-[4-(1-hydroxy-1-trifluoromethyl-propyl)-[1,2,3]-triazol-1-ylmethyl]-pyrazolo[1,5-a]pyridine-2-carboxylic acid amide]"

# Second part, the compound before the results:
row,Structure (SMILES),IC50 [nM]
1,"CCC(O)(c1cn(Cc2ccc3c(-c4ccc(F)cc4)c(C(N)=O)cn3c2)nn1)C(F)(F)F (single isomer, unassigned; enantiomer a) [Compound 1-5, 1-(4-Fluoro-phenyl)-6-[4-(1-hydroxy-1-trifluoromethyl-propyl)-[1,2,3]triazol-1-ylmethyl]-indolizine-2-carboxylic acid amide (Enantiomer A)]",< 300
2,"CCOC(=O)c1cn2cc(Cn3cc(C(O)(CC)C(F)(F)F)nn3)ccc2c1-c1ccc(F)cc1 (centres unmarked) [Compound 1-1, 1-(4-Fluoro-phenyl)-6-[4-(1-hydroxy-1-trifluoromethyl-propyl)-[1,2,3]-triazol-1-ylmethyl]-indolizine-2-carboxylic acid ethyl ester]",< 300
3,"CCC(O)(c1cn(Cc2ccc3c(-c4ccc(F)cc4)c(C#N)cn3c2)nn1)C(F)(F)F (centres unmarked) [Compound 1-3, 1-(4-Fluoro-phenyl)-6-[4-(1-hydroxy-1-trifluoromethyl-propyl)-[1,2,3]triazol-1-ylmethyl]-indolizine-2-carbonitrile]",< 300
4,"CCOC(=O)c1cn2cc(CNc3nnc(C(O)(CC)C(F)(F)F)o3)ccc2c1-c1ccc(F)cc1 (centres unmarked) [Compound 1-4, 1-(4-Fluoro-phenyl)-6-{[5-(1-hydroxy-1-trifluoromethyl-propyl)-[1,3,4]oxadiazol-2-ylamino]-methyl}-indolizine-2-carboxylic acid ethyl ester]",< 300
5,"CCC(O)(c1cn(Cc2ccc3c(C(C)C)c(C(N)=O)cn3c2)nn1)C(F)(F)F (centres unmarked) [Compound 1-9, 6-[4-(1-Hydroxy-1-trifluoromethyl-propyl)-[1,2,3]triazol-1-ylmethyl]-1-isopropyl-indolizine-2-carboxylic acid amide]",> 1000
6,"CCC(O)(c1cn(Cc2ccc3c(C(C)C)c(C#N)cn3c2)nn1)C(F)(F)F (centres unmarked) [Compound 1-10, 6-[4-(1-Hydroxy-1-trifluoromethyl-propyl)-[1,2,3]triazol-1-ylmethyl]-1-isopropyl-indolizine-2-carbonitrile]",< 300
7,"CCC(O)(c1cn(Cc2ccc3c(-c4ccc(F)cc4)c(C#N)nn3c2)nn1)C(F)(F)F (centres unmarked) [Compound 1-11, 3-(4-Fluoro-phenyl)-6-[4-(1-hydroxy-1-trifluoromethyl-propyl)-[1,2,3]triazol-1-ylmethyl]-pyrazolo[1,5-a]pyridine-2-carbonitrile]",< 300
8,"CCOC(=O)c1cn2cc(Cn3cc(C(O)(CC)C(F)(F)F)nn3)ccc2c1-c1ccc(OC)nc1 (centres unmarked) [Compound 1-13, 6-[4-(1-Hydroxy-1-trifluoromethyl-propyl)-[1,2,3]triazol-1-ylmethyl]-1-(6-methoxy-pyridin-3-yl)-indolizine-2-carboxylic acid ethyl ester]",< 300
9,"CCC(O)(c1cn(Cc2ccc3c(-c4ccc(OC)nc4)c(C(N)=O)cn3c2)nn1)C(F)(F)F (centres unmarked) [Compound 1-14, 6-[4-(1-Hydroxy-1-trifluoromethyl-propyl)-[1,2,3]triazol-1-ylmethyl]-1-(6-methoxy-pyridin-3-yl)-indolizine-2-carboxylic acid amide]",< 300

# Same assay, conditions: human leukocytes stimulated with calcium ionophore, 30 minutes at 37° C., LTB4 by ELISA; read-out: LTB4 HLA IC50
row,IC50 [nM],Structure (SMILES)
1,< 300,"CCC(O)(c1cn(Cc2ccc3c(-c4ccc(F)cc4)c(C(N)=O)cn3c2)nn1)C(F)(F)F (single isomer, unassigned; enantiomer b) [Compound 1-6, 1-(4-Fluoro-phenyl)-6-[4-(1-hydroxy-1-trifluoromethyl-propyl)-[1,2,3]triazol-1-ylmethyl]-indolizine-2-carboxylic acid amide (Enantiomer B)]"
